In US11702404B2, “GLP-1R modulating compounds” (priority 2019, dated 2023):

Experiment: Microsomal stability, human liver microsomes (predicted hepatic clearance)
Settings: predicted from in vitro microsomal stability data

Q: Which “Predicted Hepatic Clearance (Pred. Cl.)” value does the source give for `COCCn1c(Cc2ccc(-c3cccc(OCc4ccc(C#N)cc4F)n3)cc2-c2cccnc2)nc2ccc(C(=O)O)cc21` [Example 185, 2-(4-(6-((4-cyano-2-fluorobenzyl)oxy)pyridin-2-yl)-2-(pyridin-3-yl)benzyl)-1-(2-methoxyethyl)-1H-benzo[d]imidazole-6-carboxylic acid] here?
A: 12 mL/min/kg

Q: Which “Predicted Hepatic Clearance (Pred. Cl.)” value does the source give for `COCCn1c(Cc2c(F)cc(-c3cnccc3OCc3ccc(C#N)cc3F)cc2F)nc2ccc(C(=O)O)cc21` [Example 191, 2-(4-(4-((4-cyano-2-fluorobenzyl)oxy)pyridin-3-yl)-2,6-difluorobenzyl)-1-(2-methoxyethyl)-1H-benzo[d]imidazole-carboxylic acid] here?
A: 7.83 mL/min/kg

Q: With `COCCn1c(Cc2ccc(-c3nnc(OCc4ccc(C#N)cc4F)s3)cc2F)nc2ccc(C(=O)O)cc21` [Example 213, 2-(4-(5-((4-cyano-2-fluorobenzyl)oxy)-1,3,4-thiadiazol-2-yl)-2-fluorobenzyl)-1-(2-methoxyethyl)-1H-benzo[d]imidazole-carboxylic acid] as the compound, how does the “Predicted Hepatic Clearance (Pred. Cl.)” value read?
A: 9.17 mL/min/kg

Q: For `COCCn1c(Cc2ccc(-c3cccc(OCc4ccc(C#N)cc4F)n3)c(NC(C)=O)c2)nc2ccc(C(=O)O)cc21` [Example 253, 2-(3-acetamido-4-(6-((4-cyano-2-fluorobenzyl)oxy)pyridin-2-yl)benzyl)-1-(2-methoxyethyl)-1H-benzo[d]imidazole-6-carboxylic acid], which “Predicted Hepatic Clearance (Pred. Cl.)” value is on record?
A: 14 mL/min/kg

Q: Which “Predicted Hepatic Clearance (Pred. Cl.)” value does the source give for `COCCn1c(Cn2cc(-c3cccc(OCc4ccc(C#N)cc4F)n3)cn2)nc2ccc(C(=O)O)cc21` [Example 282, 2-((4-(6-((4-cyano-2-fluorobenzyl)oxy)pyridin-2-yl)-1H-pyrazol-1-yl)methyl)-1-(2-methoxyethyl)-1H-benzo[d]imidazole-6-carboxylic acid] here?
A: 8.17 mL/min/kg

Q: With `COCCn1c(Cc2ccc(-c3cccc(OCc4ccc5cn[nH]c5c4)n3)cc2F)nc2ccc(C(=O)O)cc21` [Example 463, 2-(4-(6-((1H-indazol-6-yl)methoxy)pyridin-2-yl)-2-fluorobenzyl)-1-(2-methoxyethyl)-1H-benzo[d]imidazole-6-carboxylic acid] as the compound, how does the “Predicted Hepatic Clearance (Pred. Cl.)” value read?
A: 2.33 mL/min/kg

Q: Which “Predicted Hepatic Clearance (Pred. Cl.)” value does the source give for `CC(=O)N1CCC[C@H]1Cn1c(Cc2ccc(-c3ccc(F)c(OCc4ccc(Cl)cc4F)c3)cc2F)nc2ccc(C(=O)O)cc21` [Example 464, (S)-1-((1-acetylpyrrolidin-2-yl)methyl)-2-((3′-((4-chloro-2-fluorobenzyl)oxy)-3,4′-difluoro-[1,1′-biphenyl]-4-yl)methyl)-1H-benzo[d]imidazole-6-carboxylic acid] here?
A: 4 mL/min/kg

Q: Which “Predicted Hepatic Clearance (Pred. Cl.)” value does the source give for `COCCn1c(Cc2ccc(-c3cccc(OCc4cccc5cc[nH]c45)n3)cc2F)nc2ccc(C(=O)O)cc21` [Example 479, 2-(4-(6-((1H-indol-7-yl)methoxy)pyridin-2-yl)-2-fluorobenzyl)-1-(2-methoxyethyl)-1H-benzo[d]imidazole-6-carboxylic acid] here?
A: 9.33 mL/min/kg

Q: With `CC(=O)N1CCC[C@H]1Cn1c(Cc2ccc(-c3ccc(F)c(OCc4ccc(Cl)cc4F)c3)cc2F)nc2ccc(C(=O)O)cc21` [Example 482, 3-[[(2S)-1-acetylpyrrolidin-2-yl]methyl]-2-[[4-[3-[(4-chloro-2-fluoro-phenyl)methoxy]-4-fluoro-phenyl]-2-fluoro-phenyl]methyl]benzimidazole-5-carboxylic acid] as the compound, how does the “Predicted Hepatic Clearance (Pred. Cl.)” value read?
A: 4.83 mL/min/kg

Q: With `COCCn1c(Cc2ccc(-c3cccc(OCc4ccccc4N)n3)cc2F)nc2ccc(C(=O)O)cc21` [Example 498, 2-(4-(6-((2-aminobenzyl)oxy)pyridin-2-yl)-2-fluorobenzyl)-1-(2-methoxyethyl)-1H-benzo[d]imidazole-6-carboxylic acid] as the compound, how does the “Predicted Hepatic Clearance (Pred. Cl.)” value read?
A: <1.83 mL/min/kg
